Test results from ChEMBL document CHEMBL5512611, “Discovery of matrix metalloproteinase inhibitors as anti-skin photoaging agents” (Eur J Med Chem, 2024).
Blank lines part the entries; values can stand above or below the compound they belong to.

Experiments:
[1] = target: T1, 72 kDa type IV collagenase (Homo sapiens, UniProt P08253); assay: Inhibition of recombinant MMP-2 (unknown origin)
Stromelysin-2 = Stromelysin-2 (Homo sapiens, UniProt P09238); assay: Inhibition of MMP-10 (unknown origin) using 5-FAM-Pro-Leu-OH as substrate by fluorimetric assay
[2] = target: T1, 72 kDa type IV collagenase; assay: Inhibition of human MMP-2 using 7-methoxycoumarin-4-yl)acetyl-Pro-Leu-Gly-Leu-(N3-(2,4-dinitrophenyl)-L-2,3-diaminopropionyl)-Ala-Arg-NH2 as substrate preincubated for 5 mins followed by enzyme addition and measured after 15 mins by fluorescence based analysis
[3] = target: Matrix metalloproteinase-9 (Homo sapiens, UniProt P14780); assay: Inhibition of human MMP-9 using 7-methoxycoumarin-4-yl)acetyl-Pro-Leu-Gly-Leu-(N3-(2,4-dinitrophenyl)-L-2,3-diaminopropionyl)-Ala-Arg-NH2 as substrate preincubated for 5 mins followed by enzyme addition and measured after 15 mins by fluorescence based analysis
[4] = target: Macrophage metalloelastase (Homo sapiens, UniProt P39900); assay: Inhibition of human MMP-12 using 7-methoxycoumarin-4-yl)acetyl-Pro-Leu-Gly-Leu-(N3-(2,4-dinitrophenyl)-L-2,3-diaminopropionyl)-Ala-Arg-NH2 as substrate preincubated for 5 mins followed by enzyme addition and measured after 15 mins by fluorescence based analysis
[5] = Inhibition of UV light -induced MMP-1 expression in HDF-N cells at 1 ppm by ELISA relative to control; type: functional; conditions: Homo sapiens
[6] = Inhibition of UV light-induced MMP-1 expression in HDF-N cells at 10 ppm by ELISA relative to control; type: functional; conditions: Homo sapiens
[7] = Inhibition of UV light-induced MMP-1 expression in HDF-N cells at 5 ppm by ELISA relative to control; type: functional; conditions: Homo sapiens
Interstitial collagenase = target: T2, Interstitial collagenase (Homo sapiens, UniProt P03956); assay: Inhibition of MMP-1 (unknown origin)
T2 sequence (P03956 whole entry): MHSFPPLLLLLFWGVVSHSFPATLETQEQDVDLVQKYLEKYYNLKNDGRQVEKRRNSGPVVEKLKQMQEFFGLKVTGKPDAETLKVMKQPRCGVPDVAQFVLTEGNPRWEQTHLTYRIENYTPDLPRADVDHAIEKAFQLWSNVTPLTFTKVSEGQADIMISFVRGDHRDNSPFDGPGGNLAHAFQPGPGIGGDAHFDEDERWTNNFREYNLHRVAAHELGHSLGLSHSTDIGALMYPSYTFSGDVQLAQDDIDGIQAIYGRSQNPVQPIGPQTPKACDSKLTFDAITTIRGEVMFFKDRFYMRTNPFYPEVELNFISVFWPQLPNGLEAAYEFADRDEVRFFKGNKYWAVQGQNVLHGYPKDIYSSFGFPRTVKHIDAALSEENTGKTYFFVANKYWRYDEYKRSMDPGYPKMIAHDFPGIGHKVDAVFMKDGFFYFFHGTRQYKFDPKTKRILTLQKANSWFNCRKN

[8] = Inhibition of MMP-2 mRNA expression in UVB-irradiated human Hs68 cells at 10 uM relative to control; type: functional; conditions: Hs68, light or radiation study
[9] = Inhibition of MMP-1 mRNA expression in UVB-irradiated human Hs68 cells at 10 uM relative to control; type: functional; conditions: Hs68, light or radiation study
[10] = Downregulation of UVB irradiation-induced MMP-1 expression in HDF cells at 20 uM measured after 24 hrs by Western blot analysis relative to control; type: functional, Homo sapiens, NHDF
[11] = Downregulation of UVB irradiation-induced MMP-3 expression in HDF cells at 20 uM measured after 24 hrs by Western blot analysis relative to control; type: functional, Homo sapiens, NHDF
[12] = Cytotoxicity against human CCD-986Sk cells assessed as cell viability by MTT assay relative to control; type: toxicity, cell-based; conditions: read-out: Activity
[13] = Inhibition of UVB-induced MMP-9 expression in SKH-1 hairless mouse skin at 5 nM administered topically for 1 hr followed by UVB irradiation for 15 weeks by densitometry based gelatin zymography analysis relative to control; type: functional; conditions: SKH-1, Skin of body, light or radiation study, topical, time 2521 hrs
[14] = Inhibition of UVB-induced MMP-9 expression in SKH-1 hairless mouse skin at 1 nM administered topically for 1 hr followed by UVB irradiation for 15 weeks by densitometry based gelatin zymography analysis relative to control; type: functional; conditions: SKH-1, Skin of body, light or radiation study, topical, time 2521 hrs

Stromelysin-2, sequence (P09238 whole entry): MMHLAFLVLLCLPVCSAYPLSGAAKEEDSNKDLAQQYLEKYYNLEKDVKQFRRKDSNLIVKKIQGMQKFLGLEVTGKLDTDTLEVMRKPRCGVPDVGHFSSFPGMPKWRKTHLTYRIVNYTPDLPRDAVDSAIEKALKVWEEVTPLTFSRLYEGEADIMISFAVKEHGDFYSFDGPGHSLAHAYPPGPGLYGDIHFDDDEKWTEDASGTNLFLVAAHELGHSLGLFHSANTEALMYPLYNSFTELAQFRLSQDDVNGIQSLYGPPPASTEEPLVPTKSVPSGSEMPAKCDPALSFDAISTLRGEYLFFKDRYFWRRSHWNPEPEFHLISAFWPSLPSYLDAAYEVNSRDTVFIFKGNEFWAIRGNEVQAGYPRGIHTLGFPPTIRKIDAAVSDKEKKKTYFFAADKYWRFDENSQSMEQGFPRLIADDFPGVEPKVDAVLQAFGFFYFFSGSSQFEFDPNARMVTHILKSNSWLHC
T1 sequence (P08253 whole entry): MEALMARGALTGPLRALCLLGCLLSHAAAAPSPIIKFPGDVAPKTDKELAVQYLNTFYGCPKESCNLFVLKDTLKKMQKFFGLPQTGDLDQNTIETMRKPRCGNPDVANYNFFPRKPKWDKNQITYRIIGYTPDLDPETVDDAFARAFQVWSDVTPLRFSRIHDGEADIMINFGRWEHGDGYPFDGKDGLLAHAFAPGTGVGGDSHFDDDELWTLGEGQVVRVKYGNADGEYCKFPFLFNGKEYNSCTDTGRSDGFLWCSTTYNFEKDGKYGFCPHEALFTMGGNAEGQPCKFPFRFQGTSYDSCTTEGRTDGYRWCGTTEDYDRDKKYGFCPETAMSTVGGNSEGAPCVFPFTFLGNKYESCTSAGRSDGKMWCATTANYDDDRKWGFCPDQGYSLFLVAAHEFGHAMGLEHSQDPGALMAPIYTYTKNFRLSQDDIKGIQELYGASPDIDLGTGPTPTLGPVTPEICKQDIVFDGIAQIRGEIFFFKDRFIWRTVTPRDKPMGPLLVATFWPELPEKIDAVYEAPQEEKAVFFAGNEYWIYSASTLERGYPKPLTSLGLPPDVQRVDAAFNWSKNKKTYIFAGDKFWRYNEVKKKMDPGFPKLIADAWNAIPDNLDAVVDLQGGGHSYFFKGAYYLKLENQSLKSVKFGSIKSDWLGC
Matrix metalloproteinase-9, sequence (P14780 whole entry): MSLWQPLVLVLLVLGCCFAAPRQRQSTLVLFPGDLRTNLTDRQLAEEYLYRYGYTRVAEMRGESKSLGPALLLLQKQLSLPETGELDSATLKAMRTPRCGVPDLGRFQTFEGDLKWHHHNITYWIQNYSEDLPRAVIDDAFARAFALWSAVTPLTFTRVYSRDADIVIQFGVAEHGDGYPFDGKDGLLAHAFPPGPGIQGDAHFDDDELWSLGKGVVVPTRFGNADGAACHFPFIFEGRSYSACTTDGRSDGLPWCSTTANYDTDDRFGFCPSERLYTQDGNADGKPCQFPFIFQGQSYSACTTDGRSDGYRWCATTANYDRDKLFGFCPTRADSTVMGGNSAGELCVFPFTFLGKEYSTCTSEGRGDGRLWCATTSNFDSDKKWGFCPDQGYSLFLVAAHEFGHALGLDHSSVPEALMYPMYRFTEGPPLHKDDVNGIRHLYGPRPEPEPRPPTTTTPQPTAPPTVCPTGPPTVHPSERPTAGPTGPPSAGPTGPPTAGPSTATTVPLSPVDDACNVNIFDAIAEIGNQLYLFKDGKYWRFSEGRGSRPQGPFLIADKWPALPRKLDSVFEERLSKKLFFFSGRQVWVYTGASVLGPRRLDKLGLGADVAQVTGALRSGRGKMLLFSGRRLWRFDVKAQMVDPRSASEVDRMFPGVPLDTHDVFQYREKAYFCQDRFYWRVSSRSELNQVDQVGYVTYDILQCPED
Macrophage metalloelastase, sequence (P39900 whole entry): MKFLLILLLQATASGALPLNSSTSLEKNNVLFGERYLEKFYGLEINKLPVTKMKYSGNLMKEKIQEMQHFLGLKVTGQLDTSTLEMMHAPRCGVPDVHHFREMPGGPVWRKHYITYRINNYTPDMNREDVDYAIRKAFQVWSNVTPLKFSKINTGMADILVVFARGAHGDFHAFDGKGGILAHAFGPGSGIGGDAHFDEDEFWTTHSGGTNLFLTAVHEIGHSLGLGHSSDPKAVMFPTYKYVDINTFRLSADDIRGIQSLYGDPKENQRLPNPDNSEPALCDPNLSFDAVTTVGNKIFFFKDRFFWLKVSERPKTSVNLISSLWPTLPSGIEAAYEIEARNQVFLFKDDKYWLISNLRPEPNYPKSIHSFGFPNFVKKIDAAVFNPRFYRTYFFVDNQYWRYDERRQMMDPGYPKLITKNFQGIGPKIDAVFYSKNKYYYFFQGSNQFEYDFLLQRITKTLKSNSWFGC

IC50 [1]: 70 nM
Compound: COc1ccc(S(=O)(=O)N(CC(=O)NO)CC(C)C)cc1

IC50 (Stromelysin-2): 24 nM
Compound: CC(=O)N1C2NC(C)=CC(=O)N2C(c2ccc(Br)cc2)N1C(C)=O (configuration not stated)

IC50 [2]: 0.65 nM
IC50 [3]: 0.8 nM
IC50 [4]: 3.5 nM
Compound: C[C@H](C[C@H](CO)NC(=O)c1ccc(Oc2ccccc2)cc1)C(=O)NO

IC50 (Stromelysin-2): 53 nM
Compound: COc1ccc(/C=N/Nc2nc(C)cc(=O)[nH]2)cc1

Compound: O=C1c2cc(O)cc(O)c2CN1c1ccc(O)cc1
inhibition at 1 µg/mL [5]: 33.9%
inhibition at 10 µg/mL [6]: 27.5%
inhibition at 5 µg/mL [7]: 27.6%

IC50 (Interstitial collagenase): 9750 nM
Compound: O=C1OC[C@H]2OC(O)[C@@H]3OC(=O)c4cc(O)c(O)c(O)c4-c4c(cc(O)c(O)c4O)C(=O)O[C@@H]3[C@@H]2OC(=O)c2cc(O)c(O)c(O)c2-c2c1cc(O)c(O)c2O (some centres not stated)

IC50 (Stromelysin-2): 1630 nM
Compound: CC(=O)N1c2nc(=O)cc(C)n2C(c2ccc(Br)cc2)N1C(C)=O (configuration not stated)

IC50 [2]: 1.1 nM
IC50 [3]: 2.8 nM
IC50 [4]: 2.6 nM
Compound: C[C@H](C[C@H](COC(=O)CCC(=O)O)NC(=O)c1ccc(Oc2ccccc2)cc1)C(=O)NO

Compound: COc1cc2ccnc3c2c(c1OC)NC=C3 [AAPTAMINE]
inhibition at 10 µM [8]: 87.4%
inhibition at 10 µM [9]: 53.6%

Compound: Oc1ccc2c(c1)OC[C@]1(O)Cc3cc(O)c(O)cc3[C@H]21 [BRAZILIN]
Activity [10]: 50%
Activity [11]: 50%

Compound: O=C(O[C@@H]1Cc2c(O)cc(O)cc2O[C@@H]1c1cc(O)c(O)c(O)c1)c1cc(O)c(O)c(O)c1 [EPIGALOCATECHIN GALLATE]
IC50 (Interstitial collagenase): 7900 nM

Compound: COc1cc(/C=C/C(=O)O)ccc1O [FERULATE]
viability [12]: > 80%

Compound: O=c1c(O)c(-c2cc(O)c(O)c(O)c2)oc2cc(O)cc(O)c12 [MYRICETIN]
inhibition in vivo at 0.005 µM [13]: 80%
inhibition in vivo at 0.001 µM [14]: 55%
